{"source": "the supplement of paper PMC6045584", "note": "± gives the standard deviation of the averaged measurements.", "data": [{"compound": "COc1cc([C@@H]2c3cc4c(cc3[C@@H](O[C@@H]3O[C@@H]5CO[C@@H](C)O[C@H]5[C@H](O)[C@H]3O)[C@H]3COC(=O)[C@H]23)OCO4)cc(OC)c1O [ETOPOSIDE]", "assay": "surviving fraction relative to DMSO-only wells; higher = less growth inhibition", "settings": "1 nM; exposure time: 5 days", "procedure,_shortened": "(§1)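 Log-phase tumour cell lines were seeded at 250–500 cells per well in 384-well plates. After 24 hours they were exposed continuously for five days to inhibitors at 0.5, 1, 5, 10, 50, 100, 500 and 1000 nM. Viability was read by CellTiter-Glo luminescence after 10 minutes at room temperature, and surviving fraction is luminescence normalised to the median of DMSO-only wells. Each line was screened three times and kept only if replicate Pearson r >0.7 and median Z' >0.3.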", "values": [{"test system": "MDAMB134 BREAST", "surviving fraction": "1.187 ± 0.0057"}, {"test system": "MDAMB157 BREAST", "surviving fraction": "0.938 ± 0.044"}, {"test system": "MDAMB231 BREAST", "surviving fraction": "1.03 ± 0.056"}, {"test system": "MDAMB361 BREAST", "surviving fraction": "0.848 ± 0.056"}, {"test system": "MDAMB436 BREAST", "surviving fraction": "1 ± 0.053"}]}, {"compound": "COc1cc([C@@H]2c3cc4c(cc3[C@@H](O[C@@H]3O[C@@H]5CO[C@@H](C)O[C@H]5[C@H](O)[C@H]3O)[C@H]3COC(=O)[C@H]23)OCO4)cc(OC)c1O [ETOPOSIDE]", "assay": "surviving fraction relative to DMSO-only wells; higher = less growth inhibition", "settings": "5 nM; exposure time: 5 days", "procedure,_shortened": "as §1", "values": [{"test system": "22RV1 PROSTATE", "surviving fraction": "0.928 ± 0.059"}, {"test system": "93VU HEADNECK", "surviving fraction": "1.11 ± 0.037"}, {"test system": "143B BONE", "surviving fraction": "1.01 ± 0.016"}, {"test system": "A549 LUNG", "surviving fraction": "0.988 ± 0.026"}, {"test system": "ASKA SYNOVIAL", "surviving fraction": "0.985 ± 0.052"}, {"test system": "BT20 BREAST", "surviving fraction": "0.936 ± 0.17"}, {"test system": "BT549 BREAST", "surviving fraction": "1.06 ± 0.13"}, {"test system": "CADOES1 SOFT TISSUE", "surviving fraction": "0.966 ± 0.04"}, {"test system": "CAL51 BREAST", "surviving fraction": "0.956 ± 0.039"}, {"test system": "CAL120 BREAST", "surviving fraction": "0.982 ± 0.016"}, {"test system": "CASKI CERVIX", "surviving fraction": "0.99 ± 0.035"}, {"test system": "CHLA90 AUTONOMIC GANGLIA", "surviving fraction": "0.978 ± 0.069"}, {"test system": "CME SYNOVIAL", "surviving fraction": "1.13 ± 0.081"}, {"test system": "COLO320DM LARGE INTESTINE", "surviving fraction": "1.15 ± 0.044"}, {"test system": "DU4475 BREAST", "surviving fraction": "0.848 ± 0.075"}, {"test system": "H23 LUNG", "surviving fraction": "1.01 ± 0.033"}, {"test system": "HCC38 BREAST", "surviving fraction": "1.16 ± 0.18"}, {"test system": "HCC70 BREAST", "surviving fraction": "1.08 ± 0.044"}, {"test system": "HCC78 LUNG", "surviving fraction": "1 ± 0.082"}, {"test system": "HCC202 BREAST", "surviving fraction": "1.17 ± 0.066"}, {"test system": "HCC1806 BREAST", "surviving fraction": "1.05 ± 0.082"}, {"test system": "HCC1954 BREAST", "surviving fraction": "1.1 ± 0.064"}, {"test system": "HCT15 LARGE INTESTINE", "surviving fraction": "1.01 ± 0.041"}, {"test system": "HELA CERVIX", "surviving fraction": "1.04 ± 0.031"}, {"test system": "HMLE3 BREAST", "surviving fraction": "1.01 ± 0.027"}, {"test system": "HMT3552 BREAST", "surviving fraction": 1.04}, {"test system": "HOS BONE", "surviving fraction": "1.02 ± 0.018"}, {"test system": "HOSMNG BONE", "surviving fraction": "0.976 ± 0.024"}, {"test system": "HS57T BREAST", "surviving fraction": "1.01 ± 0.02"}, {"test system": "HS578T BREAST", "surviving fraction": "0.831 ± 0.2"}, {"test system": "HSSYII SYNOVIAL", "surviving fraction": "0.968 ± 0.049"}, {"test system": "HT1080 SOFT TISSUE", "surviving fraction": "0.951 ± 0.02"}, {"test system": "HU09 BONE", "surviving fraction": "1.12 ± 0.099"}, {"test system": "JIMT1 BREAST", "surviving fraction": "1.03 ± 0.032"}, {"test system": "JURKAT HAEMATOPOIETIC AND LYMPHOID TISSUE", "surviving fraction": "1.052 ± 0.0055"}, {"test system": "KPD BONE", "surviving fraction": "1.02 ± 0.026"}, {"test system": "LM7 BONE", "surviving fraction": "1.01 ± 0.068"}, {"test system": "MCF7 BREAST", "surviving fraction": "0.867 ± 0.079"}, {"test system": "MDAMB134 BREAST", "surviving fraction": "0.994 ± 0.13"}, {"test system": "MDAMB157 BREAST", "surviving fraction": "1.07 ± 0.044"}, {"test system": "MDAMB231 BREAST", "surviving fraction": "1.02 ± 0.018"}, {"test system": "MDAMB361 BREAST", "surviving fraction": "0.884 ± 0.055"}, {"test system": "MDAMB436 BREAST", "surviving fraction": "1.05 ± 0.079"}]}, {"compound": "COc1cc([C@@H]2c3cc4c(cc3[C@@H](O[C@@H]3O[C@@H]5CO[C@@H](C)O[C@H]5[C@H](O)[C@H]3O)[C@H]3COC(=O)[C@H]23)OCO4)cc(OC)c1O [ETOPOSIDE]", "assay": "surviving fraction relative to DMSO-only wells; higher = less growth inhibition", "settings": "10 nM; exposure time: 5 days", "procedure,_shortened": "as §1", "values": [{"test system": "22RV1 PROSTATE", "surviving fraction": "0.939 ± 0.023"}, {"test system": "93VU HEADNECK", "surviving fraction": "1.05 ± 0.15"}, {"test system": "143B BONE", "surviving fraction": "1.03 ± 0.012"}, {"test system": "A549 LUNG", "surviving fraction": "0.976 ± 0.05"}, {"test system": "ASKA SYNOVIAL", "surviving fraction": "0.881 ± 0.036"}, {"test system": "BT20 BREAST", "surviving fraction": "1.04 ± 0.13"}, {"test system": "BT549 BREAST", "surviving fraction": "1.05 ± 0.12"}, {"test system": "CADOES1 SOFT TISSUE", "surviving fraction": "0.97 ± 0.024"}, {"test system": "CAL51 BREAST", "surviving fraction": "0.977 ± 0.049"}, {"test system": "CAL120 BREAST", "surviving fraction": "0.973 ± 0.013"}, {"test system": "CASKI CERVIX", "surviving fraction": "0.939 ± 0.014"}, {"test system": "CHLA90 AUTONOMIC GANGLIA", "surviving fraction": "0.959 ± 0.042"}, {"test system": "CME SYNOVIAL", "surviving fraction": "1.13 ± 0.13"}, {"test system": "COLO320DM LARGE INTESTINE", "surviving fraction": "1.05 ± 0.093"}, {"test system": "DU4475 BREAST", "surviving fraction": "0.7 ± 0.089"}, {"test system": "H23 LUNG", "surviving fraction": "1.04 ± 0.056"}, {"test system": "HCC38 BREAST", "surviving fraction": "1.17 ± 0.1"}, {"test system": "HCC70 BREAST", "surviving fraction": "1.09 ± 0.1"}, {"test system": "HCC78 LUNG", "surviving fraction": "0.925 ± 0.16"}, {"test system": "HCC202 BREAST", "surviving fraction": "0.994 ± 0.18"}, {"test system": "HCC1806 BREAST", "surviving fraction": "1.03 ± 0.075"}, {"test system": "HCC1954 BREAST", "surviving fraction": "1.05 ± 0.074"}, {"test system": "HCT15 LARGE INTESTINE", "surviving fraction": "1.04 ± 0.046"}, {"test system": "HELA CERVIX", "surviving fraction": "1.04 ± 0.015"}, {"test system": "HMLE3 BREAST", "surviving fraction": "0.9737 ± 0.0075"}, {"test system": "HMT3552 BREAST", "surviving fraction": 0.998}, {"test system": "HOS BONE", "surviving fraction": "1.019 ± 0.0095"}, {"test system": "HOSMNG BONE", "surviving fraction": "1.01 ± 0.023"}, {"test system": "HS57T BREAST", "surviving fraction": "1.06 ± 0.069"}, {"test system": "HS578T BREAST", "surviving fraction": "0.789 ± 0.079"}, {"test system": "HSSYII SYNOVIAL", "surviving fraction": "0.971 ± 0.018"}, {"test system": "HT1080 SOFT TISSUE", "surviving fraction": "0.94 ± 0.015"}, {"test system": "HU09 BONE", "surviving fraction": "1 ± 0.023"}]}]}
